Source: PMC2993768 (Journal of natural products, 2010)

What was measured:
[1] = micromolar range; cited from earlier work
[2] = tested on: mouse dorsal root ganglion (DRG) neurons; conditions: purified compounds, 20 μg / mL, K+-stimulated
[3] = tested on: other serotonin receptors; assay: PDSP primary binding assay at 10 μM, other serotonin receptors; design: species or system human; conditions: from Ki at 5-HT2B vs no significant binding at 10 μM

Row | Structure (SMILES) | antihypotensive activity [1] | effect on Ca2+ influx in DRG cells [2] | selectivity for 5-HT2B over related receptors [3]
1 | O=C(O)c1csc(-c2ccccc2O)n1 [Aeruginoic acid] | exhibited antihypotensive activity |  | 
2 | NC(=O)C1CSC(c2ccccc2O)=N1 (centres unmarked) [Compound 3, pulicatin G] |  | observably increased Ca^2+ influx | 
3 | C[C@@H]1SC(c2ccccc2O)=N[C@@H]1CO [Compound 6, Pulicatin A] |  | decreased Ca^2+ influx | at least 20 fold
4 | OC[C@@H]1CSC(c2ccccc2O)=N1 [Compound 1, aerugine] |  | observably increased Ca^2+ influx | 
